Measurements reported in US20120035187A1 (priority 2009, published 2012).
Marks after values point to notes of the source that are not given here.

Tests used:
[1] = Peroxyl radical-scavenging activity, ESR (AAPH)
Procedure: Stock solutions, prepared by dissolving NK-4, NK-19, NK-53, NK-100, and NK-557 in DMSO, were respectively diluted with 0.1 M phosphate buffer to give concentrations of […] higher than those in Table 15 and used as test sample solutions. To 50 μl of 0.1 M phosphate buffer (pH 7.4), 50 μl of 180 mM DMPO ([…]) commercialized by Dojindo Laboratories, Kumamoto, Japan, 50 μl of any one of the test sample solutions, and 50 μl of 100 mM AAPH, commercialized by Wako Pure Chemical Industries, Osaka, Japan, were added, mixed for 10 seconds using a vortex mixer and allowed to react in an incubator controlled at 37° for two minutes and 50 seconds. After 30 seconds from completion of the reaction, the resulting reaction mixture was subjected to ESR measurement.
(§1) The reaction mixture for measuring hydroxyl or peroxyl radicals was poured into a flat quartz cell for ESR, set to “FREE RADICAL MONITOR JES-FR30”, an ESR apparatus commercialized by JOEL Ltd., Tokyo, Japan, and ESR was measured according to manual manner. The residual ratio of peroxyl radical (%) was determined as a relative value by defining the ESR value, obtained by using 0.1 M phosphate buffer as a substitute of the test sample solution, as 100. The results are in Tables 14 and 15. […] Therefore, the IC50 of edaravone was determined by another test using its higher concentration, and the result is also shown in Table 14. The conditions of the ESR measurement were set as follows: […]

[2] = Hydroxyl radical-scavenging activity, ESR (Fenton reaction)
Procedure: Stock solutions, prepared by dissolving NK-4, NK-19, NK-53, NK-100, and NK-557 in DMSO, were respectively diluted with refined water to give concentrations of 3-folds higher than those in Table 14 and used as test sample solutions. As a positive control, a neuroprotectant, “edaravone”, commercialized as “RADICUT®” containing 3-methyl-1-phenyl-2-pyrazoline-5-one as an effective ingredient by Mitsubishi Tanabe Pharma Corporation, Osaka, Japan, was diluted with refined water to give a concentration of 3-folds higher than that in Table 14 for use. To 50 μl of refined water, 50 μl of 89 mM DMPO ([…]) commercialized by Dojindo Laboratories, Kumamoto, Japan, 50 μl of the test sample solution, and 50 μl of an aqueous solution containing 1 mM hydrogen peroxide, 1 mM FeSO4, and 1 mM DTPA, commercialized by Wako Pure Chemical Industries, Osaka, Japan, were added, mixed for 10 seconds using a vortex mixer and allowed to react in an incubator controlled at 37° for 40 seconds. After 30 seconds from completion of the reaction, the resulting reaction mixture was subjected to ESR measurement. A control solution was prepared by the same method as above except for using 50 μl of a diluted edaravone solution as a substitute for the test sample solution, and subjected to ESR measurement.
as §1

brain ischemia rat = test: Brain ischemia (cerebral infarction model) rat: size/volume of cerebral infarction region (TTC); format: in vivo; details: for Size of cerebral infarcttion region (%): brain ischemia rats, 100 p g/kg body weight via caudal vein twice, relative to control group 1 = 100%; for increment of the volume of cerebral infarction region (in words): Experiment 13, cerebral-infarction-model rat, administered through caudal vein; for Volume of cerebral infarction region (mm^3): embolus rat, caudal vein
[3] = system: primary neuron (neuron, astrocyte and microglia) prepared from brain cortex of a rat fetus; test: Amyloid β fragment disorder in primary neuron; format: cell-based; details: concrete data not shown
From the text: Though concrete data is not shown, using primary neuron (neuron, astrocyte and microglia) prepared from brain cortex of a rat fetus in place of PC12-HS cells, the influence of NK-4, NK-26, NK-234, NK-19 and NK-150 on amyloid β fragment disorder and hydrogen peroxide disorder was investigated.

[4] = system: ICR mice injected with amyloid β fragment; test: Novelty object recognition test, mouse injected with amyloid β fragment (Alzheimer's dementia model); format: in vivo; details: for adverse effect / novelty object recognition test (in words): mice injected with amyloid β fragment; for adverse effect: i.p. once a day over 13 days; for novelty object recognition test (in words): vs amyloid β fragment alone; for Index for object discrimination: mouse administered with amyloid β fragment
Procedure: One hundred of ICR mice (male, five weeks of age, body weight of 25 to 30 g, commercialized by Charles Liver Laboratories Japan Inc., Kanagawa, Japan) were randomly divided into 10 groups, each consisting 10 heads, and raised separately until the experiment was terminated. […] A micro syringe with an […] stainless needle (3 mm length) was used for injection. The injection site was determined by confirming the staining at right-and-left lateral ventricles of the frontal section, dorsal third ventricle, and ventral third ventricle by injecting an Evans' Blue solution (0.3 μg/0.3 μl) in place of the solution of amyloid β fragment.
The test, which consists of three parts of acclimation, practicing trial, and holding trial, was operated at six to eight days after administering amyloid β fragment into the subjects' ventricles. The experiment apparatus (40 cm in depth, 30 cm in width and 30 cm in height), in which the floor was paved with wood tips, was placed in a noiseless place under an illumination of about 1,000 lux. On the 6th day after the administration, a mouse was placed in the center of the apparatus without seeking object and allowed to seek freely for 10 minutes (acclimation). After 24 hours (on the 7th day after the administration), two objects (objects A and B) were placed in the apparatus at a position 10-cm apart from the lateral side, and the mouse was placed in the center of the apparatus and allowed to seek freely for 10 minutes (practicing trial). After 24 hours (on 8th day after the administration), object A (memorized object) sought by the mouse on the previous day was placed at the same position of object A as placed on the previous day, and object C (novel object) different from object B used on the previous day […] of object B as placed on the previous day, and then the mouse was placed in the center of the apparatus and allowed to seek freely for 10 minutes (holding trial). When the mouse directed its muffle close to the object within 2 cm apart from the object or allowed its muffle to contact with the object, the mouse was judged to be seeking, and the seeking time thereof was measured with a stopwatch. The object discrimination index [={(seeking time for novel object)−(seeking time for memorized object)}/{(seeking time for novel object)+(seeking time for memorized object)}] was calculated. The object discrimination index means the ratio of increase in seeking time for novel object to the total seeking time, which becomes longer when the memory of the once sought object is more strongly held and becomes shorter when the memory is more weakly held.

[5] = Body weight of hamsters with cerebellar ataxia during administration; format: in vivo, hamster; details: compared between groups administered with PBS, NK-4 and IGF-1
APP Tg mouse = test: Novelty object recognition test, APP transgenic mouse; details: for Index for object discrimination: intraperitoneal, five times a week for 12 weeks
[6] = compound concentration 25 μg/ml
[7] = compound concentration 50 μg/ml
[8] = concentration of compound 2.5 μg/ml
[9] = concentration of compound 3.13 μg/ml
[10] = concentration of compound 6.25 μg/ml
[11] = concentration of compound 12.5 μg/ml
[12] = 500 μg/kg body weight i.p. once a day
[13] = i.p. five times a week for 12 weeks

SMILES | IC50 (μg/ml) of peroxyl radical-scavenging activity [1] | Residual ratio of peroxyl radical (%) ([1]; compound concentration 5 μg/ml) | Residual ratio of peroxyl radical (%) [1, 6] | Residual ratio of peroxyl radical (%) [1, 7] | IC50 (μg/ml) of hydroxyl radical-scavenging activity [2] | Residual ratio of hydroxyl radical (%) [2, 8] | Residual ratio of hydroxyl radical (%) [2, 9] | Residual ratio of hydroxyl radical (%) [2, 10] | Residual ratio of hydroxyl radical (%) [2, 11] | Size of cerebral infarcttion region (%) (brain ischemia rat) | suppressing amyloid β fragment disorder [3] | increment of the volume of cerebral infarction region (in words) (brain ischemia rat) | Volume of cerebral infarction region (mm^3) (brain ischemia rat; dose 100 μg per kg body weight) | adverse effect [4] | Index for object discrimination ([4]; dose 50 μg/kg body weight) | Index for object discrimination ([4]; dose 500 μg/kg body weight) | novelty object recognition test (in words) [4, 12] | other results
CC[n+]1ccccc1/C=C/c1ccc(N(C)C)cc1 [NK-557] | 50< μg/ml | 90 ± 9% | 58 ± 5 % | 66 ± 8 % | 6.2 µg/mL | 15 ± 6 % | 71 ± 1 % | 50 ± 1 % | 30 ± 1 % | 61.1 ± 14.2% |  |  |  |  |  |  |  | 
CCN1/C(=C/C=C(/C=C/c2sc3ccccc3[n+]2CC)c2sc3ccccc3[n+]2CC)Sc2ccccc21.[I-].[I-] [NK-100] | 50< μg/ml | 86 ± 15% | 86 ± 15% | 76 ± 7 % | 6.6 µg/mL | 8 ± 0 % | 68 ± 1 % | 51 ± 1 % | 32 ± 1 % | 74.5 ± 11.4% |  |  |  |  |  |  |  | 
CCCCN1C=C/C(=C/C=C(/C=C/c2cc[n+](CCCC)c3ccccc23)c2cc[n+](CCCC)c3ccccc23)c2ccccc21 [NK-26] |  |  |  |  |  |  |  |  |  |  | actions of suppressing | significantly suppressed | 169 ± 23 mm^3 | No adverse effect | 0.19 ± 0.07 | 0.11 ± 0.08 |  | Volume of cerebral infarction region (mm^3) (brain ischemia rat; dose 1 μg per kg body weight): 194 ± 22 mm^3; Volume of cerebral infarction region (mm^3) (brain ischemia rat; dose 10 μg per kg body weight): 121 ± 22* mm^3; novelty object recognition test (in words) ([4]; 50 μg/kg body weight i.p. once a day): significant improvement; Index for object discrimination ([4]; dose 5 μg/kg body weight): 0.05 ± 0.08
CCCN1C=CC(=CC=C(C=Cc2cc[n+](CCC)c3ccccc23)c2cc[n+](CCC)c3ccccc23)c2ccccc21.[I-].[I-] [NK-234] |  |  |  |  |  |  |  |  |  |  | actions of suppressing |  |  | No adverse effect |  | 0.29 ± 0.07 | significant improvement | 
CCN1C=CC(=CC=C(C=Cc2cc[n+](CC)c3ccccc23)c2cc[n+](CC)c3ccccc23)c2ccccc21.[I-].[I-] [NK-4] | 4.7 µg/mL | 46 ± 9 % | 17 ± 1 % | 16 ± 0 % | 6.7 µg/mL | 15 ± 1 % | 67 ± 1 % | 49 ± 2 % | 26 ± 1 % | 49.4 ± 5.1 % | actions of suppressing | significantly suppressed | 88 ± 18** mm^3 | No adverse effect | 0.15 ± 0.07 | 0.41 ± 0.08 | significant improvement | body weight of hamsters with cerebellar A, weighed once every week up to 10-weeks of age [5]: no significant difference; Index for object discrimination (APP Tg mouse; dose 100 μg/kg body weight): 0.20 ± 0.06; Index for object discrimination (APP Tg mouse; dose 500 μg/kg body weight): 0.30 ± 0.05; adverse effect (APP Tg mouse; [13]): No adverse effect; object discrimination test (in words) (APP Tg mouse; [13]): improved the dementia; Volume of cerebral infarction region (mm^3) (brain ischemia rat; dose 25 μg per kg body weight): 186 ± 21 mm^3; Volume of cerebral infarction region (mm^3) (brain ischemia rat; dose 50 μg per kg body weight): 107 ± 21* mm^3; Volume of cerebral infarction region (mm^3) (brain ischemia rat; dose 200 μg per kg body weight): 143 ± 26 mm^3; Volume of cerebral infarction region (mm^3) (brain ischemia rat; dose 300 μg per kg body weight): 176 ± 31 mm^3
